One block for each compound: values may come before it.
Tests used:
[1] = target: C-C chemokine receptor type 2 (Homo sapiens, UniProt P41597); test: Antagonist activity at CCR2 in human whole blood assessed as inhibition of CCL2-induced CD11b upregulation; format: functional, tissue-based
[2] = target: C-C chemokine receptor type 2 (Mus musculus, UniProt P51683); test: Displacement of [125I]-CCL2 from mouse CCR2
[3] = AUC (0 to 24 hrs) in mouse at 10 mg/kg, po; format: ADME, organism-based; parameters: time < 24 hr, route oral, dose 10 mg/kg; conditions: in vivo
[4] = AUC (0 to 24 hrs) in rat at 10 mg/kg, po; format: ADME, organism-based; parameters: time < 24 hr, route oral, dose 10 mg/kg; conditions: in vivo
[5] = Oral bioavailability in dog at 1 mg/kg; format: ADME, organism-based, Canis lupus familiaris; conditions: in vivo
[6] = Oral bioavailability in rat at 10 mg/kg; format: ADME, organism-based; conditions: in vivo
[7] = Clearance in mouse at 2 mg/kg, iv; format: ADME, organism-based; conditions: in vivo
[8] = target: T1, C-X-C chemokine receptor type 2 (Homo sapiens, UniProt P25025); test: Displacement of [125I]-interleukin-8 from human CXCR2 expressed in human pEAK rapid cells incubated for 90 mins by microscintillation counting analysis; format: cell-based
T1 sequence (P25025 whole entry): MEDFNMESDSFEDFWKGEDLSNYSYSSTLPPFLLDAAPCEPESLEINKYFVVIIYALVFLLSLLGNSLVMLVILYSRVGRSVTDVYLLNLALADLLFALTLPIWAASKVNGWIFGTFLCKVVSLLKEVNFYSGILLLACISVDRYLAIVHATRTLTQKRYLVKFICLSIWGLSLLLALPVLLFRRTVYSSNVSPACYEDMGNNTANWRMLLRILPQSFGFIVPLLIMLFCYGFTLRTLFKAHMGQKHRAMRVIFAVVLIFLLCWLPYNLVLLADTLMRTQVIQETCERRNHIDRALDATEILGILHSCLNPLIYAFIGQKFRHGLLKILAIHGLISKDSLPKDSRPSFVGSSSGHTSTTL

[9] = Oral bioavailability in mouse at 10 mg/kg; format: ADME, organism-based; conditions: in vivo
[10] = Clearance in cynomolgus monkey at 1 mg/kg, iv; format: ADME, organism-based, Macaca fascicularis; conditions: in vivo
[11] = Clearance in dog at 1 mg/kg, iv; format: ADME, organism-based, Canis lupus familiaris; conditions: in vivo
[12] = Protein binding in human plasma assessed as unbound fraction at 1 uM by equilibrium dialysis method; format: ADME, cell-free
[13] = Clearance in rat at 2 mg/kg, iv; format: ADME, organism-based; conditions: in vivo
[14] = Stability in rat liver microsomes assessed as half life at 0.5 uM measured up to 45 mins in the presence of NADPH by LC-MS/MS analysis; format: ADME, Microsome
[15] = Protein binding in mouse plasma assessed as unbound fraction at 1 uM by equilibrium dialysis method; format: ADME, cell-free
[16] = Permeability of the compound at pH 5.5 by PAMPA; format: ADME; conditions: read-out: permeability
[17] = Protein binding in rat plasma assessed as unbound fraction at 1 uM by equilibrium dialysis method; format: ADME, cell-free
[18] = Stability in human liver microsomes assessed as half life at 0.5 uM measured up to 45 mins in the presence of NADPH by LC-MS/MS analysis; format: ADME, Microsome
[19] = AUC (0 to 24 hrs) in cynomolgus monkey at 1 mg/kg, po; format: ADME, organism-based, Macaca fascicularis; parameters: time < 24 hr, route oral, dose 1 mg/kg; conditions: in vivo
[20] = AUC (0 to 24 hrs) in dog at 1 mg/kg, po; format: ADME, organism-based, Canis lupus familiaris; parameters: time < 24 hr, route oral, dose 1 mg/kg; conditions: in vivo
Mus musculus = test: Antiinflammatory activity against human CCR2 knock-in thioglycollate-induced peritonitis C57BL/6 mouse model assessed as reduction in inflammatory monocyte and macrophage infiltration in peritoneum administered orally twice daily for 2 days with first dose 1 hr prior to thioglycollate challenge; format: functional, organism-based; conditions: dose 10-160 mg/kg, time 2.0 day
Homo sapiens = organism: Homo sapiens; test: Selectivity ratio of IC50 for displacement of [125I]-CCL2 from CCR2 in human PBMC cells to IC50 for displacement of [125I]-MIP-1beta from CCR5 in human peripheral T cells; format: cell-based
[21] = target: T2, C-C chemokine receptor type 4 (Homo sapiens, UniProt P51679); test: Displacement of [125I]chemokine from CCR4 (unknown origin) by gamma counter method
T2 sequence (P51679 whole entry): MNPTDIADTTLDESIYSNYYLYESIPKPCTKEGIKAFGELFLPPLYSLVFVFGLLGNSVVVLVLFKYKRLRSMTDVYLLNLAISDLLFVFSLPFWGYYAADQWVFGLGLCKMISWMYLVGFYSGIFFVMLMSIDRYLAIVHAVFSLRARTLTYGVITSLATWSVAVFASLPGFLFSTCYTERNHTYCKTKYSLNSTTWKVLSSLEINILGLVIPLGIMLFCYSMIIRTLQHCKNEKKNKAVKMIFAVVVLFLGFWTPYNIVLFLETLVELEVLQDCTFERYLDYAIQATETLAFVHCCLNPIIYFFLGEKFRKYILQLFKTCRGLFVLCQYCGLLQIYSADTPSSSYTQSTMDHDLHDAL

[22] = target: T3, C-C chemokine receptor type 1 (Homo sapiens, UniProt P32246); test: Displacement of [125I]MIP-1alpha from CCR1 in human THP-1 cells incubated for 12 hrs by radioligand competition assay; format: cell-based
T3 sequence (P32246 whole entry): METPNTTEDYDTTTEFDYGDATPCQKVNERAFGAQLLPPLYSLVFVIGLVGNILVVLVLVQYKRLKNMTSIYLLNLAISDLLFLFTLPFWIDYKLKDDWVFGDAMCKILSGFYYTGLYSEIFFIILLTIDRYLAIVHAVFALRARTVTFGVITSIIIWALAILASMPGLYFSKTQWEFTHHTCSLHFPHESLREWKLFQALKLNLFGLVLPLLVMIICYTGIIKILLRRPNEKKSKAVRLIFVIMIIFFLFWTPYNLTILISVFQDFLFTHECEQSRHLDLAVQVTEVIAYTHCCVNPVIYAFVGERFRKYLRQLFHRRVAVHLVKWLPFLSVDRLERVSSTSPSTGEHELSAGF

hERG (KCNH2) = hERG (KCNH2) (Homo sapiens, UniProt Q12809); test: Inhibition of human ERG expressed in HEK293 cells at 30 uM by patch-clamp assay relative to control; format: cell-based; conditions: HEK293 cells that express hERG
[23] = Oral bioavailability in cynomolgus monkey at 1 mg/kg; format: ADME, organism-based, Macaca fascicularis; conditions: in vivo
[24] = Stability in mouse liver microsomes assessed as half life at 0.5 uM measured up to 45 mins in the presence of NADPH by LC-MS/MS analysis; format: ADME, Microsome

hERG (KCNH2), sequence (Q12809 whole entry): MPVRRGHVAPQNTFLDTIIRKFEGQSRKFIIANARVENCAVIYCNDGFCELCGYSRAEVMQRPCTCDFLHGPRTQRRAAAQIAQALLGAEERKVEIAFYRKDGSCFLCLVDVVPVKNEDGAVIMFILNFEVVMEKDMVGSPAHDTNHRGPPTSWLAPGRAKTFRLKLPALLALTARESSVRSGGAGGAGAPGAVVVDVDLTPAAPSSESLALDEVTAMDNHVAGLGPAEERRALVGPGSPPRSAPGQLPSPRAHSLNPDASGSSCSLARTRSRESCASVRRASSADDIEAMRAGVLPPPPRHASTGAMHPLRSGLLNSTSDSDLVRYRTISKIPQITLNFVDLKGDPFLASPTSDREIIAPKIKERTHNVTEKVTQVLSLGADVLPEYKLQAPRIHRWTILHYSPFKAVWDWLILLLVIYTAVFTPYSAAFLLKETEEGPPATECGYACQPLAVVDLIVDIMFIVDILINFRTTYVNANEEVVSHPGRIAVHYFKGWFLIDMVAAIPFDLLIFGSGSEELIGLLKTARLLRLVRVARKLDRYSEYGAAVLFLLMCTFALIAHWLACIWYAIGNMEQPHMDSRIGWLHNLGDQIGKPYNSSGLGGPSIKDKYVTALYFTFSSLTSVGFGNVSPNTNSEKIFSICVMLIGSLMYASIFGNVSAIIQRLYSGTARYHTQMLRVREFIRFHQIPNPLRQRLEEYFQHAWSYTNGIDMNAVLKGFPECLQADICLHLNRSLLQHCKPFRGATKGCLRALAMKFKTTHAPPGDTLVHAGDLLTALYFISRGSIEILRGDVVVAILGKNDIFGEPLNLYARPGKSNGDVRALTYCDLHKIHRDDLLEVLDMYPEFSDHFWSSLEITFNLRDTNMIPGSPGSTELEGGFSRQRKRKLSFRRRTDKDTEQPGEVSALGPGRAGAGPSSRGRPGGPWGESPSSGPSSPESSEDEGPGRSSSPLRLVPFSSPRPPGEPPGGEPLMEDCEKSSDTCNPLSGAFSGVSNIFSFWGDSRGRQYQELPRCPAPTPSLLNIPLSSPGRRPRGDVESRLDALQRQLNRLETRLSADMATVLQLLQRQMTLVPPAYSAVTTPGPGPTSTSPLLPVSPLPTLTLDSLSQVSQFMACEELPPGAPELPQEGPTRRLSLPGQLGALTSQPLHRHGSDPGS
C-C chemokine receptor type 2 (Homo sapiens, UniProt P41597), sequence (P41597 whole entry): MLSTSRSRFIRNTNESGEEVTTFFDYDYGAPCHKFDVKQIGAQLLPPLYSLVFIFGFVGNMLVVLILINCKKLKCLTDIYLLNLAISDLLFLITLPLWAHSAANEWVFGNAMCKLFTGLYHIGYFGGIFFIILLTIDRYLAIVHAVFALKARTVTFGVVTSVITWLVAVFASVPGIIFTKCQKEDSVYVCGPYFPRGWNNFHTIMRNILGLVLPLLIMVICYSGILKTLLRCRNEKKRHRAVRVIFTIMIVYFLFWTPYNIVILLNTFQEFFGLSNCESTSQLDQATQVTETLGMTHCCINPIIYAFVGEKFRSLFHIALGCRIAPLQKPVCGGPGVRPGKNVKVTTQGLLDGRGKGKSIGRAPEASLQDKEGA
C-C chemokine receptor type 2 (Mus musculus, UniProt P51683), sequence (P51683 whole entry): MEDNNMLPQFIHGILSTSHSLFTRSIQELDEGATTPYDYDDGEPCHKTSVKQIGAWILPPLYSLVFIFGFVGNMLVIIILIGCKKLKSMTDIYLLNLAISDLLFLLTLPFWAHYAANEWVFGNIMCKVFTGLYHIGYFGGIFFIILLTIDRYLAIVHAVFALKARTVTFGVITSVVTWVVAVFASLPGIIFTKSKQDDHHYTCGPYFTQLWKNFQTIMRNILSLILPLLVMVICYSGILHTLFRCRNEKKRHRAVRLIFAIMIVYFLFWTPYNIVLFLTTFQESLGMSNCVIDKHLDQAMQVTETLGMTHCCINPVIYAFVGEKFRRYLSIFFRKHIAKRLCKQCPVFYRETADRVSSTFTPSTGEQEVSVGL

IC50 [1]: 2.6 nM
SMILES: CC(=O)N[C@@H]1C[C@H](NC(C)(C)C)CC[C@@H]1N1CC[C@H](Nc2ncnc3ccc(C(F)(F)F)cc23)C1=O

IC50 [2]: 45 nM
AUC(0-t) at 24 h [3]: 5.41 µM·h
AUC(0-t) at 24 h [4]: 6.5 µM·h
bioavailability [5]: 61%
bioavailability [6]: 94%
clearance [7]: 85 mL/min/kg
IC50 [8]: > 40000 nM
bioavailability [9]: 100%
clearance [10]: 16 mL/min/kg
clearance [11]: 17 mL/min/kg
fraction unbound at 1 µM [12]: 0.71
clearance [13]: 50 mL/min/kg
half-life at 0.5 µM [14]: > 3.33 h
fraction unbound at 1 µM [15]: 0.58
Papp [16]: 1.9 ×10⁻⁶ cm/s
fraction unbound at 1 µM [17]: 0.69
half-life at 0.5 µM [18]: 2.43 h
AUC(0-t) at 24 h [19]: 1.3 µM·h
AUC(0-t) at 24 h [20]: 1.23 µM·h
IC50 [21]: > 40000 nM
IC50 [22]: > 25000 nM
bioavailability [23]: 63%
half-life at 0.5 µM [24]: > 3.33 h
SMILES: CC(=O)N[C@@H]1C[C@H](NC(C)(C)C)CC[C@@H]1N1CC[C@H](Nc2ncnc3cc(C(C)(C)C)nn23)C1=O [BMS-813160]
Activity (Mus musculus): Dose-Dependent Effect
Ratio IC50 (Homo sapiens): 2
inhibition at 30 µM (hERG (KCNH2)): 9%

Source: ChEMBL document CHEMBL4840365, “BMS-813160: A Potent CCR2 and CCR5 Dual Antagonist Selected as a Clinical Candidate” (ACS Med Chem Lett, 2021)
